# Data: patent US20170044208A1, “SELECTIVE GLUCOCORTICOID RECEPTOR LIGANDS” (The University of Manchester, priority 2013, published 2017)
# Read-outs that look alike come from different tables or passages of the source.
# Assays:
# NFkB = experiment: Transrepression assay (NFκB-LUC reporter in HeLa cells, TNF stimulated); assay type: cell-based; conditions: for Emax / IC50: Homo sapiens, HeLa; for Emax: 16 h, read-out: TR Max %; for TR %: maximal NFkB repression compared to Dexamethasone
# Experimental: HeLa cells were seeded at 80×10^4 cells/dish in 100 mm dishes. Cells were transfected the next day with NFκB-LUC reporter (5 μg) and pGL4-hRLuc (0.1 μg), in 0.25 mL of Opti-MEM I using FuGENE HD (15 μL). After 24 hours, cells were trypsinized and seeded in to 24-well plates at a density of 8-10×10^4 cells/mL. Following overnight incubation, cells were starved for a further 24 hours in DMEM.
# On the day of the experiment, compounds were added to cells one hour prior to the addition of […] (0.5 ng/mL). After a further 16 hours, cells were washed twice with ice-cold PBS, then lysed with 100 μL of 1×PLB.
# (§1) Firefly and Renilla luciferase activity was measured using the Dual Luciferase Reporter system following the manufacturer's protocol.
# (§2) IC50 and EC50 values were calculated by using GraphPad Prism 5.0. Briefly, luminescence values for luciferase were normalised using the Renilla luminescence values. The normalised values were input into GraphPad Prism 5.0. Non-linear regression analysis was carried out using the “log(concentration) vs. response” equation of the software, with a Hill slope coefficient fixed at 1.
# (§3) IC50 and EC50 values are mean values in nM of all IC50/EC50 values for the compound. Max % values are mean values of the Max% activity.
# [1] = molecular target: T1, Glucocorticoid Receptor (GR) (Homo sapiens, UniProt P04150); experiment: Transactivation assay (MMTV-Luc reporter in HeLa cells); assay type: cell-based
# T1 construct: Cells were transfected the next day with MMTV-Luc (5 μg) and pGL4-hRLuc (0.1 μg); endogenous in cells; host or cells: HeLa
# T1 sequence (P04150 1-777): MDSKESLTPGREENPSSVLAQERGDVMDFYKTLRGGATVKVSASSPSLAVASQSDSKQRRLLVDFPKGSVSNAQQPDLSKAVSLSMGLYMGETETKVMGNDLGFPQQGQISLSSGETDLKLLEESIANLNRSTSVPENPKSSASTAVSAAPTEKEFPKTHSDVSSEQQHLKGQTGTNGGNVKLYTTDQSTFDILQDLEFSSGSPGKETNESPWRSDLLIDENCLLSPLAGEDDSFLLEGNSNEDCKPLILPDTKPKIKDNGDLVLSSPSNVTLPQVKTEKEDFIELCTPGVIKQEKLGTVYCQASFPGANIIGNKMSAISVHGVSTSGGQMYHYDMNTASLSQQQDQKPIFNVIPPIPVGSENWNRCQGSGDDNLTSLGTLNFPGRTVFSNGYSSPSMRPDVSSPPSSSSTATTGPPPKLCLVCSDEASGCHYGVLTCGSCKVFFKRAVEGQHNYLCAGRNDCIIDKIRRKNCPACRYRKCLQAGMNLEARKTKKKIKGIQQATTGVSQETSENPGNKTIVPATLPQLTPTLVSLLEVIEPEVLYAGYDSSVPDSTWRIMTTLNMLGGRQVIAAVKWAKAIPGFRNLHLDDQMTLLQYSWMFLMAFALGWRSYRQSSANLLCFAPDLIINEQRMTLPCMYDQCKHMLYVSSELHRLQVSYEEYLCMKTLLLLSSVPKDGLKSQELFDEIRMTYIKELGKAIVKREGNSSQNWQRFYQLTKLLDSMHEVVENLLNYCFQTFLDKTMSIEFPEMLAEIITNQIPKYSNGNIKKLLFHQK
# Experimental: HeLa cells were seeded at 80×10^4 cells/dish in 100 mm dishes. Cells were transfected the next day with MMTV-Luc (5 μg) and pGL4-hRLuc (0.1 μg), in 250 μL of Opti-MEM I using FuGENE HD (15 μL). After 24 hours, cells were trypsinized and seeded into 96-well plates at a density of 8-10×10^4 cells/mL.
# Following overnight incubation to allow attachment, cells were treated with the required concentration of compounds, then further incubated for 16 hours. Media was aspirated and cells lysed in 40 μL of 1×PLB.
# as §1, §2, §3
# [2] = concentration for half-maximal repression of NFkB, TNF 0.5 ng/mL, 16 hours, mean, read-out: TR IC50
# [3] = concentration for half-maximal transactivation; HeLa, MMTV-Luc, 16 hours; mean; read-out: TA EC50
# [4] = comparison table, half-maximal repression of NFkB, multiple experiments, read-out: IC50
# [5] = comparison table; against maximal activation seen with dexamethasone
Compound,Emax (NFkB),IC50 (NFkB; [2]),"Emax ([1]; HeLa, 16 h; read-out: TA Max %)","EC50 [1, 3]","Emax ([1]; HeLa, 16 h, read-out: TA Max %)",IC50 (NFkB; [4]),TR % (NFkB; comparison table),"TA % [1, 5]"
C[C@@H]1C[C@H]2[C@@H]3CCC4=CC(=O)C=C[C@]4(C)[C@@]3(F)[C@@H](O)C[C@]2(C)[C@@]1(O)C(=O)NCCCc1ccc(F)cc1 [Compound 1],90.8%,8.41 nM,21.3%,868 nM,–,–,–,–
C[C@@H]1C[C@H]2[C@@H]3CCC4=CC(=O)C=C[C@]4(C)[C@@]3(F)[C@@H](O)C[C@]2(C)[C@@]1(O)C(=O)NCCCc1ccccn1 [Compound 2],52.4%,23.5 nM,18.3%,1180 nM,–,–,–,–
C[C@@H]1C[C@H]2[C@@H]3CCC4=CC(=O)C=C[C@]4(C)[C@@]3(F)[C@@H](O)C[C@]2(C)[C@@]1(O)C(=O)NCCCc1ccccc1O [Compound 3],76%,21.9 nM,24.1%,1150 nM,–,–,–,–
COc1ccc(OCCCNC(=O)[C@@]2(O)[C@H](C)C[C@H]3[C@@H]4CCC5=CC(=O)C=C[C@]5(C)[C@@]4(F)[C@@H](O)C[C@@]32C)cc1 [Compound 4],106%,3.95 nM,–,69.2 nM,39.4%,–,–,–
C[C@@H]1C[C@H]2[C@@H]3CCC4=CC(=O)C=C[C@]4(C)[C@@]3(F)[C@@H](O)C[C@]2(C)[C@@]1(O)C(=O)NCCOc1ccc(F)cc1 [Compound 5],104%,8.13 nM,27.2%,321 nM,–,–,–,–
C[C@@H]1C[C@H]2[C@@H]3CCC4=CC(=O)C=C[C@]4(C)[C@@]3(F)[C@@H](O)C[C@]2(C)[C@@]1(O)C(=O)NCCCOc1ccc(F)cc1 [Compound 6],84.6%,11.5 nM,16%,890 nM,–,–,–,–
COc1ccc(OCCNC(=O)[C@@]2(O)[C@H](C)C[C@H]3[C@@H]4CCC5=CC(=O)C=C[C@]5(C)[C@@]4(F)[C@@H](O)C[C@@]32C)cc1 [Compound 7],97.3%,19.4 nM,44%,294 nM,–,1.22 nM,98%,44%
C[C@@H]1C[C@H]2[C@@H]3CCC4=CC(=O)C=C[C@]4(C)[C@@]3(F)[C@@H](O)C[C@]2(C)[C@@]1(O)C(=O)NCCOc1ccccn1 [Compound 8],95%,5.69 nM,49.7%,248 nM,–,–,–,–
C[C@@H]1C[C@H]2[C@@H]3CCC4=CC(=O)C=C[C@]4(C)[C@@]3(F)[C@@H](O)C[C@]2(C)[C@@]1(O)C(=O)NCCCOc1ccc(C(F)(F)F)cc1 [Compound 9],80.5%,25 nM,15.1%,1110 nM,–,–,–,–
C[C@@H]1C[C@H]2[C@@H]3CCC4=CC(=O)C=C[C@]4(C)[C@@]3(F)[C@@H](O)C[C@]2(C)[C@@]1(O)C(=O)NCCOc1nc2ccccc2o1 [Compound 10],55.1%,35.4 nM,4.79%,3390 nM,–,–,–,–
C[C@@H]1C[C@H]2[C@@H]3CCC4=CC(=O)C=C[C@]4(C)[C@@]3(F)[C@@H](O)C[C@]2(C)[C@@]1(O)C(=O)NCCCc1ccccc1 [Compound 11],88.8%,30.2 nM,36.5%,114 nM,–,–,–,–
C[C@@H]1C[C@H]2[C@@H]3CCC4=CC(=O)C=C[C@]4(C)[C@@]3(F)[C@@H](O)C[C@]2(C)[C@@]1(O)C(=O)NCCOc1ccncc1 [Compound 12],91.1%,40.7 nM,23.8%,719 nM,–,–,–,–
COc1ccc(CCCNC(=O)[C@@]2(O)[C@H](C)C[C@H]3[C@@H]4CCC5=CC(=O)C=C[C@]5(C)[C@@]4(F)[C@@H](O)C[C@@]32C)cc1OC [Compound 13],87.6%,10.8 nM,30%,189 nM,–,–,–,–
C[C@@H]1C[C@H]2[C@@H]3CCC4=CC(=O)C=C[C@]4(C)[C@@]3(F)[C@@H](O)C[C@]2(C)[C@@]1(O)C(=O)NCCCc1cccc(F)c1 [Compound 14],88.6%,23.9 nM,36.6%,536 nM,–,–,–,–
COc1cccc(OCCCNC(=O)[C@@]2(O)[C@H](C)C[C@H]3[C@@H]4CCC5=CC(=O)C=C[C@]5(C)[C@@]4(F)[C@@H](O)C[C@@]32C)c1 [Compound 15],79.7%,3.53 nM,20.8%,1230 nM,–,–,–,–
COc1ccc(OCCCNC(=O)[C@@]2(O)[C@H](C)C[C@H]3[C@@H]4CCC5=CC(=O)C=C[C@]5(C)[C@@]4(F)[C@@H](O)C[C@@]32C)cc1OC [Compound 16],87.2%,26.8 nM,21.2%,881 nM,–,–,–,–
COC(=O)c1ccc(OCCCNC(=O)[C@@]2(O)[C@H](C)C[C@H]3[C@@H]4CCC5=CC(=O)C=C[C@]5(C)[C@@]4(F)[C@@H](O)C[C@@]32C)cc1 [Compound 17],82.3%,1.19 nM,39.1%,832 nM,–,1.19 nM,87%,39%
COc1ccc(OCCCCNC(=O)[C@@]2(O)[C@H](C)C[C@H]3[C@@H]4CCC5=CC(=O)C=C[C@]5(C)[C@@]4(F)[C@@H](O)C[C@@]32C)cc1 [Compound 18],82.1%,6.83 nM,26.3%,669 nM,–,5.96 nM,84%,26%
C[C@@H]1C[C@H]2[C@@H]3CCC4=CC(=O)C=C[C@]4(C)[C@@]3(F)[C@@H](O)C[C@]2(C)[C@@]1(O)C(=O)NCCCOc1ccc(C(=O)O)cc1 [Compound 19],33.3%,1450 nM,0.84%,406000 nM,–,–,–,–
C[C@@H]1C[C@H]2[C@@H]3CCC4=CC(=O)C=C[C@]4(C)[C@@]3(F)[C@@H](O)C[C@]2(C)[C@@]1(O)c1csc(NC(=O)c2ccc(F)cc2)n1 [Compound 23],52.1%,35.8 nM,5.67%,1400 nM,–,35.8 nM,52%,6%
C[C@@H]1C[C@H]2[C@@H]3CCC4=CC(=O)C=C[C@]4(C)[C@@]3(F)[C@@H](O)C[C@]2(C)[C@@]1(O)c1csc(NC(=O)Cc2ccc(F)cc2)n1 [Compound 24],79%,5.96 nM,2.63%,7690 nM,–,–,–,–
C[C@@H]1C[C@H]2[C@@H]3CCC4=CC(=O)C=C[C@]4(C)[C@@]3(F)[C@@H](O)C[C@]2(C)[C@@]1(O)c1csc(NCc2ccccc2)n1 [Compound 25],79%,29.1 nM,1.92%,3930 nM,–,–,–,–
C[C@@H]1C[C@H]2[C@@H]3CCC4=CC(=O)C=C[C@]4(C)[C@@]3(F)[C@@H](O)C[C@]2(C)[C@@]1(O)c1csc(NC(=O)c2cccc(F)c2)n1 [Compound 26],44.1%,8.22 nM,3.9%,1530 nM,–,–,–,–
C[C@@H]1C[C@H]2[C@@H]3CCC4=CC(=O)C=C[C@]4(C)[C@@]3(F)[C@@H](O)C[C@]2(C)[C@@]1(O)c1csc(NC(=O)c2ccc(Cl)cc2)n1 [Compound 27],49.7%,10.9 nM,5.89%,1640 nM,–,–,–,–
